Measured values: article PMC2700827 (Journal of the American Chemical Society, 2008)
Like-named read-outs stand apart in the source and are kept apart here.

Experiments:
[1] = phenol pKa given in Figure 5 legend, source not given
[2] = hydrogen bond acceptor; cited from earlier work

Row | Structure (SMILES) | pKa [1] | pKa [2]
1 | Oc1c(F)cc(F)cc1F [2,4,6-F3-phenol] | 7.2 | 
2 | O=[N+]([O-])c1cc[n+]([O-])cc1 [4-nitropyridine-N-oxide] |  | −1.7
